Where two headings read alike, the source gives them in different places.
Columns and labels:
[1] = Mouse PK after intravenous application; type: in vivo; conditions: plasma, mean residence time, intravenous 30-60 nmol/kg, male NMRI mice
In short: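 Male NMRI mice (30–40 g) received 30-60 nmol/kg peptide by tail-vein injection, dissolved in 50 mM phosphate buffer (pH 7.4)/3.5% mannitol. Saphenous blood was sampled up to 56 hours post-dose and EDTA plasma analysed by LC-MS. PK parameters came from non-compartmental analysis.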

hGLP1R = target: T1, hGLP1R (Homo sapiens, UniProt P43220); test: hGLP1R CreLuc reporter gene assay in 0.5% and 100% plasma; type: cell-based; conditions: CreLuc reporter gene assay
T1 construct: expressed in transfected cells; host or cells: HEK-293 cells carrying a CRE-luciferase reporter gene
T1 sequence (P43220 24-463): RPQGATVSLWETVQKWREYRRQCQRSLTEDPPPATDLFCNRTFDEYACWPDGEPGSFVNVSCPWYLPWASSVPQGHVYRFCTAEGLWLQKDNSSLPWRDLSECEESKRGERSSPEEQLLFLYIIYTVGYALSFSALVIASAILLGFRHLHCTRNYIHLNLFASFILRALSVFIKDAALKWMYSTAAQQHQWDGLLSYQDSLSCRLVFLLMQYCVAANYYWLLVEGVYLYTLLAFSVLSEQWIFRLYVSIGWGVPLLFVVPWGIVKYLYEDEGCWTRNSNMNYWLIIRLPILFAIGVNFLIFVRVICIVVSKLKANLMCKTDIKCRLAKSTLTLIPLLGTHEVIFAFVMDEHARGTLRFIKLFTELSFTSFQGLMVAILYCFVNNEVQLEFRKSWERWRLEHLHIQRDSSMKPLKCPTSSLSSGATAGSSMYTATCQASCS
In short: (§1)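 HEK-293 cells co-expressing GLP-1 or NPY2 receptor and CHO cells expressing GIP receptor, each carrying a CRE-driven luciferase reporter, were stimulated with peptides for 4 hours at 37 °C. Luminescence was read after Bright-Glo addition. EC50 came from 8-point, four-decade curves fitted by variable-slope non-linear regression.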

hNPY2R = target: T2, hNPY2R (Homo sapiens, UniProt P49146); test: hNPY2R CreLuc reporter gene assay in 0.5% and 100% plasma; type: cell-based; conditions: CreLuc reporter gene assay
T2 construct: expressed in transfected cells; host or cells: HEK-293 cells carrying a CRE-luciferase reporter gene
T2 sequence (P49146 1-381): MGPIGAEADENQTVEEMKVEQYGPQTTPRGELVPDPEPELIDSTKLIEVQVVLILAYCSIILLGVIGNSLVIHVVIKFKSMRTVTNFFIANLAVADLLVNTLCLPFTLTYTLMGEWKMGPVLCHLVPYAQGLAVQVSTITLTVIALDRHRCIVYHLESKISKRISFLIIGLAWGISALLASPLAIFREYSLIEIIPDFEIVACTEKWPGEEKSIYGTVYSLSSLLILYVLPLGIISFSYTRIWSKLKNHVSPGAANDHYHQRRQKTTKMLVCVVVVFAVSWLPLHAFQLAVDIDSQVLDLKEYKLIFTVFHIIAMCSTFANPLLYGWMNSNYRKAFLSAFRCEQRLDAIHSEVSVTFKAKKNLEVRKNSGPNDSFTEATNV
In short: as §1

[2] = Effect on acute food intake in normal NMRI mice; type: in vivo; conditions: 30 nmol/kg subcutaneously once, normalized to vehicle group, male NMRI mice
Procedure: Example 4: Effect on Acute Food Intake in Normal NMRI Mice
Male NMRI mice were obtained from Janvier (Janvier Labs, France) or from Charles River (Charles River Research Models & Services Germany GmbH) at the age of 3 weeks. The animals get a microchip (Datamars, Slim Microchip T-SL) for individual identification after delivery. They were housed with 4 mice per cage under a 12/12 dark-light cycle, light off at 3 p.m. Room temperature was controlled to 21° C. +/−1° C. and humidity 60%+/−20%. Mice had ad libitum access to regular rodent chow (KLIBA Nafag 3040 or Altromin 1324, Brogaarden, Denmark) and tap water.
Latest transfer into the HM2-System of MBRose, Denmark (real-time monitoring system of food- and water intake) of the animals 5 days before study start, to allow acclimatization to experimental conditions. As the animals were uniquely identified with the microchips, each individual animal was identified by its own microchip upon entry and exit from the food channel via antennae. Randomization of the mice for each study group (n=8; age earliest 6 weeks old) was based on food intake (middle of last three days 24 h-Intervall) and bodyweight directly before start of the study. A vehicle treated (50 mM phosphate buffer pH7.4 with 3.5% Mannitol) group was included in each experiment. To have the same nutrition standard for each animal the food access was locked eight hours before dark phase. One hour before night, the animals were once treated subcutaneously with the test peptide. Food intake was reported hourly for a period of 24 h.

hGIPR = target: T3, hGIPR (Homo sapiens, UniProt P48546); test: hGIPR CreLuc reporter gene assay in 0.5% and 100% plasma; type: cell-based; conditions: CreLuc reporter gene assay
T3 construct: expressed in transfected cells; host or cells: CHO cells carrying a CRE-luciferase reporter gene
T3 sequence (P48546 22-466): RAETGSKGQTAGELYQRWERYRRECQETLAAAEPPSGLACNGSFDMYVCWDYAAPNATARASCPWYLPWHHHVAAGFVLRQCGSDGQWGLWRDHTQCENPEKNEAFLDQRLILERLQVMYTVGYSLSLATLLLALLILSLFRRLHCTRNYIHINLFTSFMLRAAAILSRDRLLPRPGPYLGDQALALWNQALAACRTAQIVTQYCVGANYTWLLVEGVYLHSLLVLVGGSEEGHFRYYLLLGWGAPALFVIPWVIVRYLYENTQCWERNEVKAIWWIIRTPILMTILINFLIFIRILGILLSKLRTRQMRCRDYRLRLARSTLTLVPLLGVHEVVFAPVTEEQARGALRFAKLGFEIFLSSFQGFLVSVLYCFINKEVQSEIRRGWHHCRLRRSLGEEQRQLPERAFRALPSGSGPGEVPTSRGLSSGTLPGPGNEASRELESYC
In short: as §1

[3] = 0.5% human plasma, read-out: hGLP1R 0.5% hP
[4] = 0.5% human plasma, read-out: hNPY2R 0.5% hP
[5] = 100% human plasma, read-out: hNPY2R 100% hP
[6] = 0.5% human plasma, read-out: hGIPR 0.5% hP
[7] = 100% human plasma, read-out: hGIPR 100% hP

Row | MRT [1] | EC50 (hGLP1R; [3]) | EC50 (hGLP1R; 100% human plasma, read-out: hGLP1R 100% hP) | EC50 (hNPY2R; [4]) | EC50 (hNPY2R; [5]) | EC50 (hGIPR; [6]) | EC50 (hGIPR; [7]) | SMILES | Acute Food Intake 24 h 30 nmol/kg [% CTL] [2]
1 | 8.4 h | 0.09 nM | 2.55 nM | 10.7 nM | 29.3 nM | 0.22 nM | 0.91 nM | CC[C@H](C)[C@H](NC(=O)[C@H](CC(C)C)NC(=O)[C@H](Cc1c[nH]c2ccccc12)NC(=O)[C@H](CCC(=O)O)NC(=O)[C@@H](NC(=O)[C@H](Cc1ccccc1)NC(=O)[C@H](C)NC(=O)C(C)(C)NC(=O)[C@H](CCC(N)=O)NC(=O)[C@H](C)NC(=O)[C@H](CCC(N)=O)NC(=O)[C@H](CCCCN)NC(=O)[C@H](CCC(=O)O)NC(=O)[C@H](CC(C)C)NC(=O)C(C)(C)NC(=O)[C@@H](NC(=O)[C@H](CO)NC(=O)[C@H](Cc1ccc(O)cc1)NC(=O)[C@H](CC(=O)O)NC(=O)[C@H](CO)NC(=O)[C@@H](NC(=O)[C@H](Cc1ccccc1)NC(=O)[C@@H](NC(=O)CNC(=O)[C@H](CCC(=O)O)NC(=O)C(C)(C)NC(=O)[C@@H](N)Cc1ccc(O)cc1)[C@@H](C)O)[C@@H](C)O)[C@@H](C)CC)C(C)C)C(=O)N[C@@H](CCCCNC(=O)[C@@H](N)CCCCNC(=O)CC[C@H](NC(=O)CC[C@H](NC(=O)CC[C@H](NC(=O)CC[C@H](NC(=O)CC[C@H](NC(=O)CC[C@H](NC(=O)CCCCCCCCCCCCCCCCC(=O)O)C(=O)O)C(=O)O)C(=O)O)C(=O)O)C(=O)O)C(=O)O)C(=O)NCC(=O)NCC(=O)N1CCC[C@H]1C(=O)N[C@@H](CO)C(=O)N[C@@H](CO)C(=O)NCC(=O)N[C@@H](C)C(=O)N[C@@H](CO)C(=O)N[C@@H](CC(C)C)C(=O)N[C@@H](CCCNC(=N)N)C(=O)N[C@@H](Cc1c[nH]cn1)C(=O)N[C@@H](Cc1ccc(O)cc1)C(=O)N[C@@H](Cc1ccc(O)cc1)C(=O)N[C@@H](CC(N)=O)C(=O)N[C@@H](Cc1c[nH]c2ccccc12)C(=O)N[C@@H](CC(C)C)C(=O)N[C@H](C(=O)N[C@@H](CCCNC(=N)N)C(=O)N[C@@H](CCC(N)=O)C(=O)N[C@@H](CCCNC(=N)N)C(=O)N[C@@H](Cc1ccc(O)cc1)C(N)=O)[C@@H](C)O [Compound 259, Y-Aib-E-G-T-F-T-S-D-Y-S-I-Aib-L-E-K-Q-A-Q-Aib-A-F-V-E-W-L-I-K(1,3)-GGPSSGASLRHYYNWLTRQRY-NH2.C18DA-gGlu-gGlu-gGlu-gGlu-gGlu-gGlu-eLys(1,2)] | 36 % CTL
2 | 8.5 h | 0.1 nM | – | – | 23 nM | 0.39 nM | 0.79 nM | CC[C@H](C)[C@H](NC(=O)[C@H](CC(C)C)NC(=O)[C@H](Cc1c[nH]c2ccccc12)NC(=O)[C@H](CCC(N)=O)NC(=O)[C@@H](NC(=O)[C@H](Cc1ccccc1)NC(=O)[C@H](C)NC(=O)C(C)(C)NC(=O)[C@H](CCC(N)=O)NC(=O)[C@H](C)NC(=O)[C@H](CCC(N)=O)NC(=O)[C@H](CCCCN)NC(=O)[C@H](CCC(=O)O)NC(=O)[C@H](CC(C)C)NC(=O)C(C)(C)NC(=O)[C@@H](NC(=O)[C@H](CO)NC(=O)[C@H](Cc1ccc(O)cc1)NC(=O)[C@H](CC(=O)O)NC(=O)[C@H](CO)NC(=O)[C@@H](NC(=O)[C@H](Cc1ccccc1)NC(=O)[C@@H](NC(=O)CNC(=O)[C@H](CCC(=O)O)NC(=O)C(C)(C)NC(=O)[C@@H](N)Cc1ccc(O)cc1)[C@@H](C)O)[C@@H](C)O)[C@@H](C)CC)C(C)C)C(=O)N[C@@H](CCCCNC(=O)[C@@H](N)CCCCNC(=O)CC[C@H](NC(=O)CC[C@H](NC(=O)CC[C@H](NC(=O)CC[C@H](NC(=O)CC[C@H](NC(=O)CC[C@H](NC(=O)CCCCCCCCCCCCCCCCC(=O)O)C(=O)O)C(=O)O)C(=O)O)C(=O)O)C(=O)O)C(=O)O)C(=O)NCC(=O)NCC(=O)N1CCC[C@H]1C(=O)N[C@@H](CO)C(=O)N[C@@H](CCC(=O)O)C(=O)NCC(=O)N[C@@H](C)C(=O)N[C@@H](CO)C(=O)N[C@@H](CC(C)C)C(=O)N[C@@H](CCCNC(=N)N)C(=O)N[C@@H](Cc1c[nH]cn1)C(=O)N[C@@H](Cc1ccc(O)cc1)C(=O)N[C@@H](Cc1ccc(O)cc1)C(=O)N[C@@H](CC(N)=O)C(=O)N[C@@H](Cc1c[nH]c2ccccc12)C(=O)N[C@@H](CC(C)C)C(=O)N[C@H](C(=O)N[C@@H](CCCNC(=N)N)C(=O)N[C@@H](CCC(N)=O)C(=O)N[C@@H](CCCNC(=N)N)C(=O)N[C@@H](Cc1ccc(O)cc1)C(N)=O)[C@@H](C)O [Compound 265, Y-Aib-E-G-T-F-T-S-D-Y-S-I-Aib-L-E-K-Q-A-Q-Aib-A-F-V-Q-W-L-I-K(1,3)-GGPSEGASLRHYYNWLTRQRY-NH2.C18DA-gGlu-gGlu-gGlu-gGlu-gGlu-gGlu-eLys(1,2)] | 50 % CTL
3 | 12.1 h | 0.17 nM | – | 10.2 nM | 42.6 nM | 0.29 nM | 1.83 nM | CC[C@H](C)[C@H](NC(=O)[C@H](CC(C)C)NC(=O)[C@H](Cc1c[nH]c2ccccc12)NC(=O)[C@H](CCC(N)=O)NC(=O)[C@@H](NC(=O)[C@H](Cc1ccccc1)NC(=O)[C@H](C)NC(=O)C(C)(C)NC(=O)[C@H](CCC(N)=O)NC(=O)[C@H](C)NC(=O)[C@H](CCC(N)=O)NC(=O)[C@H](CCCCN)NC(=O)[C@H](CCC(=O)O)NC(=O)[C@H](CC(C)C)NC(=O)C(C)(C)NC(=O)[C@@H](NC(=O)[C@H](CO)NC(=O)[C@H](Cc1ccc(O)cc1)NC(=O)[C@H](CC(=O)O)NC(=O)[C@H](CO)NC(=O)[C@@H](NC(=O)[C@H](Cc1ccccc1)NC(=O)[C@@H](NC(=O)CNC(=O)[C@H](CCC(=O)O)NC(=O)C(C)(C)NC(=O)[C@@H](N)Cc1ccc(O)cc1)[C@@H](C)O)[C@@H](C)O)[C@@H](C)CC)C(C)C)C(=O)N[C@@H](CCCCNC(=O)[C@@H](N)CCCCNC(=O)CC[C@H](NC(=O)CC[C@H](NC(=O)CC[C@H](NC(=O)CC[C@H](NC(=O)CC[C@H](NC(=O)CC[C@H](NC(=O)CCCCCCCCCCCCCCCCCCC(=O)O)C(=O)O)C(=O)O)C(=O)O)C(=O)O)C(=O)O)C(=O)O)C(=O)NCC(=O)NCC(=O)N1CCC[C@H]1C(=O)N[C@@H](CO)C(=O)N[C@@H](CCC(=O)O)C(=O)NCC(=O)N[C@@H](C)C(=O)N[C@@H](CO)C(=O)N[C@@H](CC(C)C)C(=O)N[C@@H](CCCNC(=N)N)C(=O)N[C@@H](Cc1c[nH]cn1)C(=O)N[C@@H](Cc1ccc(O)cc1)C(=O)N[C@@H](Cc1ccc(O)cc1)C(=O)N[C@@H](CC(N)=O)C(=O)N[C@@H](Cc1c[nH]c2ccccc12)C(=O)N[C@@H](CC(C)C)C(=O)N[C@H](C(=O)N[C@@H](CCCNC(=N)N)C(=O)N[C@@H](CCC(N)=O)C(=O)N[C@@H](CCCNC(=N)N)C(=O)N[C@@H](Cc1ccc(O)cc1)C(N)=O)[C@@H](C)O [Compound 220, Y-Aib-E-G-T-F-T-S-D-Y-S-I-Aib-L-E-K-Q-A-Q-Aib-A-F-V-Q-W-L-I-K(1,3)-GGPSEGASLRHYYNWLTRQRY-NH2.C20DA-gGlu-gGlu-gGlu-gGlu-gGlu-gGlu-eLys(1,2)] | 45 % CTL

— patent US20240247080A1, “GLP1/GIP/NPY2 RECEPTOR TRIPLE AGONISTS” (Boehringer Ingelheim International GmbH, priority 2022, published 2024)
